Test results taken from patent US20170368082A1, “FORMULATIONS OF BRINCIDOFOVIR” (priority 2016, published 2017).

Experiment: Tissue distribution by quantitative whole-body autoradiography (QWBA)
Format: in vivo, male Sprague Dawley and Long-Evans rats
Details: for AUCall Ratio (PO/IV) / Cmax Ratio (PO/IV): Group 7 vs Group 4
Procedure: The study utilized 4 groups of male SD rats (albino), and 3 groups of male LE rats (pigmented); a total of 39 rats. All animals were obtained from Hilltop Lab Animals, Inc. (Scottdale, Pa.). […] Rats in Group 5 were administered a single 2-h IV infusion of [^14C]brincidofovir at a target dose of 2 mg/kg. […] Three dosing formulations (one for high dose IV, one for low dose IV, and one for PO dose) were prepared at QPS on the day of dosing. The IV formulation for Groups 1, 2, 3, and 4 contained a vehicle of 10 mM sodium phosphate buffer in 5% dextrose solution at pH 8.0(±0.1).
Each animal, at their respective termination time points, was euthanized for QWBA analysis immediately after blood collection. One rat per time point per Group was euthanized as listed below.
The blood samples were maintained on wet ice (approximately 4° C.) and then centrifuged to obtain plasma within 1 h of the blood collection time. Centrifuge settings were recorded in the study notebook. Duplicate aliquots of plasma (0.050 mL) were analyzed for radioactivity using direct counting by LSC, and residual plasma was stored at approximately −70° C. and was saved for possible future analysis under a separate study protocol. Residual red blood cells were discarded as radioactive waste.
The pinna, distal limbs, hair, and tail were removed from each frozen carcass and each frozen carcass was embedded in an aqueous suspension of approximately 2% (w/v) carboxymethylcellulose and frozen into a block. The blocks were stored at approximately −20° C. prior to sectioning. Each blocked carcass was mounted on the object stage of a cryomicrotome (Leica CM3600 Cryomacrocut, Nussloch, Germany and Vibratome 9800, St. Louis, Mo.) maintained at approximately −20° C. and internal standards (3), which were plasma fortified with [^14C]-glucose at one concentration (approximately 0.05 μCi/mL), were placed into the frozen blocks, prior to sectioning, and were used for section thickness quality control. A number of whole-body sections (approximately 40 μm thick) were taken in the sagittal plane at various levels of interest using a whole-body cryomicrotome set at −20° C. Sagittal sections (20-50 μm thick) of frozen carcasses were exposed to phosphor imaging plates. Regions of images in tissues were converted to concentrations using standards. All of the major tissues, organs, and biological fluids were represented.
Tissue concentration data was determined for the following tissues and/or contents: adipose (brown and white), adrenal gland, bile (in duct), blood (cardiac), bone, bone marrow, brain (cerebrum, cerebellum, medulla), cecum (and contents), large intestine (and contents), epididymis, esophagus, eye (uvea and lens), Harderian gland, heart, kidney (cortex and medulla), liver, lung, lymph node, pancreas, pituitary gland, prostate gland, salivary gland, seminal vesicles, skeletal muscle, skin (pigmented and non-pigmented), small intestine (and contents), stomach (gastric mucosa and contents), spleen, spinal cord, testis, thymus, thyroid, and urinary bladder (and contents).
The imaging plate and sections were placed in light-tight exposure cassettes, in a copper-lined lead safe, for a 4-day exposure at room temperature. […] Quantification was performed by image densitometry using MCD image analysis software (v. 7.0, Interfocus Imaging Ltd) and a standard curve constructed from the integrated response [i.e., Molecular Dynamics Counts per square millimeter (MDC/mm^2)] and the nominal concentrations of the ^14C-calibration standards. The concentrations of radioactivity were expressed as the μg equivalents of [^14C]brincidofovir per gram sample (μg equiv/g). A lower limit of quantification (LLOQ) was applied to the data (See section 6.7.4).
Tissue concentrations that fell below the LLOQ were identified as being below the quantification limit (BQL). Tissue areas that were not visualized on autoradiographic images were identified as no sample (NS) and reported as BQL.

CCCCCCCCCCCCCCCCOCCCOP(=O)(O)CO[C@H](CO)Cn1ccc(N)nc1=O [[^14C] brincidofovir]
Tissue Concentration (168 h) (Skin (non-pigmented), 2 h IV infusion 15 mg/kg, Group 4, LLOQ 0.036): 0.226 μg equiv/g | Tissue Concentration (168 h) (Skin (non-pigmented), PO 15 mg/kg, Group 7, LLOQ 0.034): BQL | AUCall (Skin (non-pigmented), PO 15 mg/kg, Group 7): 14.0275 μg equiv · h/g | AUCall Ratio (PO/IV) (Skin (pigmented), 15 mg/kg): 0.18 | Cmax Ratio (PO/IV) (Skin (pigmented), 15 mg/kg): 0.15 | AUCall (Skin (pigmented), 2 h IV infusion 15 mg/kg, Group 4): 95.5050 μg equiv · h/g | Tissue Concentration (168 h) (Skin (pigmented), 2 h IV infusion 15 mg/kg, Group 4, LLOQ 0.036): 0.09 μg equiv/g | Tissue Concentration (168 h) (Skin (pigmented), PO 15 mg/kg, Group 7, LLOQ 0.034): BQL | AUCall (Skin (pigmented), PO 15 mg/kg, Group 7): 17.0405 μg equiv · h/g | AUCall Ratio (PO/IV) (Small Intestine, 15 mg/kg): 8.25 | Cmax Ratio (PO/IV) (Small Intestine, 15 mg/kg): 6.45 | AUCall (Small Intestine, 2 h IV infusion 15 mg/kg, Group 4): 1160.650 μg equiv · h/g | Tissue Concentration (168 h) (Small Intestine, 2 h IV infusion 15 mg/kg, Group 4, LLOQ 0.036): 0.339 μg equiv/g | Tissue Concentration (168 h) (Small Intestine, PO 15 mg/kg, Group 7, LLOQ 0.034): 5.867 μg equiv/g | AUCall (Small Intestine, PO 15 mg/kg, Group 7, 15 mg/kg): 9575.18 μg equiv · h/g | AUCall Ratio (PO/IV) (Spinal Cord, 15 mg/kg): 0.02 | Cmax Ratio (PO/IV) (Spinal Cord, 15 mg/kg): 0.04 | AUCall (Spinal Cord, 2 h IV infusion 15 mg/kg, Group 4): 5.7830 μg equiv · h/g | Tissue Concentration (168 h) (Spinal Cord, 2 h IV infusion 15 mg/kg, Group 4, LLOQ 0.036): BQL | Tissue Concentration (168 h) (Spinal Cord, PO 15 mg/kg, Group 7, LLOQ 0.034): BQL | AUCall (Spinal Cord, PO 15 mg/kg, Group 7): 0.1110 μg equiv · h/g | AUCall Ratio (PO/IV) (Spleen, 15 mg/kg): 0.27 | Cmax Ratio (PO/IV) (Spleen, 15 mg/kg): 0.18 | AUCall (Spleen, 2 h IV infusion 15 mg/kg, Group 4): 642.3590 μg equiv · h/g | Tissue Concentration (168 h) (Spleen, 2 h IV infusion 15 mg/kg, Group 4, LLOQ 0.036): 0.892 μg equiv/g | Tissue Concentration (168 h) (Spleen, PO 15 mg/kg, Group 7, LLOQ 0.034): 0.274 μg equiv/g | AUCall (Spleen, PO 15 mg/kg, Group 7): 172.2208 μg equiv · h/g | AUCall Ratio (PO/IV) (Stomach (mucosa), 15 mg/kg): 1.29 | Cmax Ratio (PO/IV) (Stomach (mucosa), 15 mg/kg): 4.75 | AUCall (Stomach (mucosa), 2 h IV infusion 15 mg/kg, Group 4): 70.2310 μg equiv · h/g | Tissue Concentration (168 h) (Stomach (mucosa), 2 h IV infusion 15 mg/kg, Group 4, LLOQ 0.036): 0.069 μg equiv/g | Tissue Concentration (168 h) (Stomach (mucosa), PO 15 mg/kg, Group 7, LLOQ 0.034): 0.042 μg equiv/g | AUCall (Stomach (mucosa), PO 15 mg/kg, Group 7): 90.7575 μg equiv · h/g | AUCall Ratio (PO/IV) (Testis, 15 mg/kg): 0.39 | Cmax Ratio (PO/IV) (Testis, 15 mg/kg): 0.17 | AUCall (Testis, 2 h IV infusion 15 mg/kg, Group 4): 77.2835 μg equiv · h/g | Tissue Concentration (168 h) (Testis, 2 h IV infusion 15 mg/kg, Group 4, LLOQ 0.036): 0.098 μg equiv/g | Tissue Concentration (168 h) (Testis, PO 15 mg/kg, Group 7, LLOQ 0.034): 0.041 μg equiv/g | AUCall (Testis, PO 15 mg/kg, Group 7): 30.3920 μg equiv · h/g | AUCall Ratio (PO/IV) (Thymus, 15 mg/kg): 0.13 | Cmax Ratio (PO/IV) (Thymus, 15 mg/kg): 0.11 | AUCall (Thymus, 2 h IV infusion 15 mg/kg, Group 4): 92.4355 μg equiv · h/g | Tissue Concentration (168 h) (Thymus, 2 h IV infusion 15 mg/kg, Group 4, LLOQ 0.036): 0.1 μg equiv/g | Tissue Concentration (168 h) (Thymus, PO 15 mg/kg, Group 7, LLOQ 0.034): BQL | AUCall (Thymus, PO 15 mg/kg, Group 7): 12.0843 μg equiv · h/g | AUCall Ratio (PO/IV) (Thyroid, 15 mg/kg): 0.13 | Cmax Ratio (PO/IV) (Thyroid, 15 mg/kg): 0.13 | AUCall (Thyroid, 2 h IV infusion 15 mg/kg, Group 4): 238.0230 μg equiv · h/g | Tissue Concentration (168 h) (Thyroid, 2 h IV infusion 15 mg/kg, Group 4, LLOQ 0.036): 0.459 μg equiv/g | Tissue Concentration (168 h) (Thyroid, PO 15 mg/kg, Group 7, LLOQ 0.034): 0.038 μg equiv/g | AUCall (Thyroid, PO 15 mg/kg, Group 7): 31.3395 μg equiv · h/g | AUCall Ratio (PO/IV) (Urinary Bladder, 15 mg/kg): 0.52 | Cmax Ratio (PO/IV) (Urinary Bladder, 15 mg/kg): 0.16 | AUCall (Urinary Bladder, 2 h IV infusion 15 mg/kg, Group 4): 215.5480 μg equiv · h/g | Tissue Concentration (168 h) (Urinary Bladder, 2 h IV infusion 15 mg/kg, Group 4, LLOQ 0.036): BQL | Tissue Concentration (168 h) (Urinary Bladder, PO 15 mg/kg, Group 7, LLOQ 0.034): 0.076 μg equiv/g | AUCall (Urinary Bladder, PO 15 mg/kg, Group 7): 111.2445 μg equiv · h/g
